Results: BigSolDB 2.1

O=C(O)c1cc(=O)[nH]c(=O)[nH]1
solubility (mole fraction)
Details	278.15 K	283.15 K	288.15 K	293.15 K	298.15 K	303.15 K	308.15 K	313.15 K	318.15 K	323.15 K
in DMF	0.00242	0.00305	0.00382	0.00473	0.00578	0.0071	0.00861	0.0108	0.0132	0.0157
in DMSO	–	–	–	0.0326	0.0394	0.0472	0.0563	0.0665	0.0781	0.0911
in THF	7.26e-05	8.12e-05	9.02e-05	0.0001	0.000112	0.000125	0.000138	0.000151	0.000167	0.000185
in acetone	9.3e-06	1.06e-05	1.22e-05	1.37e-05	1.56e-05	1.76e-05	1.95e-05	2.21e-05	2.49e-05	2.78e-05
in ethanol	1.71e-05	1.9e-05	2.09e-05	2.32e-05	2.57e-05	2.86e-05	3.17e-05	3.48e-05	3.88e-05	4.32e-05
in ethyl acetate	1.1e-06	1.2e-06	1.2e-06	1.3e-06	1.4e-06	1.5e-06	1.6e-06	1.8e-06	1.9e-06	2e-06
in isopropanol	1e-05	1.32e-05	1.72e-05	2.12e-05	2.67e-05	3.36e-05	4.18e-05	5.2e-05	6.37e-05	7.71e-05
in methanol	4.44e-05	5.24e-05	6.13e-05	7.19e-05	8.42e-05	9.82e-05	0.000115	0.000135	0.000157	0.000184
in methyl acetate	8.8e-06	9.4e-06	1.03e-05	1.15e-05	1.21e-05	1.31e-05	1.41e-05	1.53e-05	1.64e-05	1.76e-05
in n-butanol	1.47e-05	1.72e-05	2.12e-05	2.53e-05	2.97e-05	3.5e-05	4.06e-05	4.88e-05	5.67e-05	6.63e-05
in n-propanol	2.24e-05	2.57e-05	3e-05	3.42e-05	3.97e-05	4.61e-05	5.31e-05	6.09e-05	7.17e-05	8.18e-05
in water	4.57e-05	5.22e-05	5.97e-05	6.68e-05	7.56e-05	8.5e-05	9.5e-05	0.000107	0.000121	0.000136
